Data on 1 compound can be found in article PMC6452685, “Lysyl-tRNA synthetase as a drug target in malaria and cryptosporidiosis” (Proceedings of the National Academy of Sciences of the …, 2019).

SMILES strings stand for the structures. Converted amounts (≈) assume the structure as drawn. Where two headings read alike, the source gives them in different places.

Data set [1] has as its system P. vivax liver schizonts/hypnozoites. In words: P. vivax liver schizonts/hypnozoites (prophylactic mode). The data set is classed as cell-based. The conditions noted are these: Plasmodium vivax. The procedure: (§1) Thi s i s bas ed on met hods prev i ous l y report ed (12 ). In bri ef, HepG 2-A1 6-CD81EGFP cel l s were cul tured at 3 7 °C i n 5% C O2 in DMEM me dia. For both P. berghei-Luc and HepG2 cytotoxi ci ty assays, 3x 10**3 of the HepG2-A16-CD81EGFP20 cells in 5 µl of assay medi um (DMEM wi thout Phenol Red (Li fe Techn ol ogi es, CA), 5% FBS, and 5x Pen Stre p Gl utami ne (Li fe Techn ol ogi es, CA)) at concentrati o n 6x 10**5 cel l s /ml were s eeded i n white s oli d bottom 153 6-well pl at es (cus t om G NF mol d ref# 7891 73-F, Grei ner Bi o-One), 2 0-26 h prior to sporozoites infection. […]
(§2) pri or t o i nfect i on 5 0 nl of comp ounds i n 1:3 s eri al di l ut i ons in DMSO (0. 5% fi nal DMSO concentrati on per w el l ) w ere t rans ferred w i t h an Acous ti c Trans fer Sy s t em (ATS) (Bi os ero) t o the cells. Atovaquone (5µ M) and pu romy ci n (1 0 µM) at a single concentration were used as pos i t i v e cont rol s for the Pbluc and He pG 2tox , res pecti v el y . 0. 5% DMSO was us ed as neg ati v e control for both as s ay s . […]
(§3) […] Immediately after addition of the luminescence reagent, the luminescence was measured by the Env i s i on M ul t il abel Reader (Perk i nEl mer). […]
(§4) Thi s is a modification of the previously reported method (13). […]

In the next data set the test system is Plasmodium falciparum. In words: In vitro parasite reduction ratio (PRR) assay. The data set is classed as cell-based. The conditions noted are these: 10 x EC50, 120 h.
Another data set is described as follows: FaSSIF solubility. The data set is classed as physicochemical. To be noted: 37 °C, thermodynamic from solid; FaSSIF pH 6.5. The procedure:
4.1 Aque ous s olubilit y
Compounds were subject to serial dilution from 10 mM to 0.47 mM in DMSO. An al i quot was then mi xed wi th Mi l li Q water to obtai n a n aq ueous di l uti on pl ate wi th a fi na l concentrati on rang e of 250 - 13 µM, with a final DMSO concentration of 2. 5 % (v /v ). Triplicate al i quots were transferred to a fl at bottomed pol ystyrene pl ate whi ch was i mmedi ately read o n the NEPHELOstar (BMG Lab Techn ol ogi es). […]
Drug dissolution in biorelevant media which simulates the liquid environment within the upper […]
into the blood stream and is more a more accurate determination of oral d os e s ol ubi li t y t han si mple aqueous sol ubi l i ty performed at neutral pH and wi thout any associ ated bil e aci ds and fats. This method i s based on that of Fagerberg et al. (16) where the FaSSIF has pH 6.5 a nd c ontains 3 mM sodium taurocholate and 0.7 5 mM lectithin. FaSSIF blank only has pH 6.5 and is devoid of salts and […]
[…] The sampl e i s then centri fuged at 10,00 0 rpm for 3 mi n befo re th e supernatant i s subject to HPLC analysis at 254 nm UV detecti on wavel ength. Typi call y, 10 µ l supernatant injections are suffi ci ent to achi eve peak areas whi ch fal l wi thi n the 6 p oi nt standar d curv e of anal y te concentrati ons i njected onto the col umn, al thoug h thi s may be i ncreas ed up to 40 µl for more insoluble compounds where necessary. […]

Data set [2] has as its system P. berghei liver schizonts. In words: P. berghei liver schizonts (luciferase). The data set is classed as cell-based. To be noted: Plasmodium berghei. The procedure:
as §1, §2, §3, §4

Protocol for Plasmodium falciparum: 3.5 In vitro parasite reduction ratio (PRR) assay with Pl as modi um fal c i p aru m (G S K) The in vitro Parasite Rate Reduction assay (PRR) was conducted as previously described (8). […] Drug was renewed daily over the entire treatment period. Samples of paras i t es w ere t ak en from t he t reat ed cul t ure at i nt erv al s (24, 48, 72, 96 and 120 h t i me poi nt s ), drug was washed out and drug-free paras i t es w ere cul tured i n 96-well plates by adding fre s h e ry t hrocy t e s
and new cul ture medi a. T he n umber of vi abl e parasi tes was determi ned by the seri al di l uti on technique. Four indepe ndent serial dilutions were done with each sample to correct for experimental

Broadly, the EC50 is the midpoint of the concentration-response curve. Usually solubility stands for the dissolved amount per volume that the medium holds. A low value points to a poorly soluble substance. Turning to `O=C(NCC1(O)CCC(F)(F)CC1)c1cc(=O)c2cc(F)ccc2o1` [Compound 5], the concentration for a half-maximal effect (EC50) in data set [1] (hypnozoites, read-out: P. vivax hypnozoites EC50 (prophylactic mode)) was > 10000 nM; in data set [1] (liver schizonts, read-out: P. vivax liver schizonts EC50 (prophylactic mode)) it was 950 nM; in data set [2], 900 nM. Also, the “rate of killing (PRR assay)” value in the data set with Plasmodium falciparum was “slow rate of killing”. This compound also gave a solubility at 5 h in the data set “FaSSIF solubility” of 255 µM (≈ 90.6 µg/mL).
